Data: patent US20050032687A1, “Method and composition for the modulation of angiogenesis” (priority 2001, published 2005)
“Also recorded” adds a separate entry of the source.

Columns and labels:
G6PD [1] = assay: G6PD activity in BAEC; format: cell-based, bovine; conditions: for G6PD activity: VEGF 100 ng/ml
Excerpt: (§1) To investigate the role of G6PD in vascular endothelial cell proliferation, we initially sought to determine if growth factors involved in angiogenesis, such as vascular endothelial growth factor (VEGF), influenced G6PD activity.
(§2) To examine further the role of G6PD in VEGF-mediated cell proliferation, we next inhibited G6PD activity by exposing BAEC to dehydroepiandrosterone (DHEA) ([…]), a noncompetitive inhibitor of G6PD, for 24 hr.
(§3) As a control, we used a phosphorothioate oligodeoxynucleotide with a scrambled sequence (SS).
(§4) We have recently constructed an adenoviral vector incorporating murine G6PD cDNA (93% homologous to the rat cDNA).

[2] = system: bovine aortic endothelial cells (BAEC); assay: Cell migration in modified Boyden chamber; format: cell-based; conditions: for cell migration (fluorescence), result in words: BAEC; for cell migration: VEGF-stimulated BAEC (100 ng/ml, 18 hr) with eNOS inhibitor (L-NAME 1 mmol/L, L-NMMA 100 μmol/L)
Procedure: Fluorescently labeled, BAEC were stimulated with VEGF (100ng/ml) for 18 hr and cell migration was assessed in a modified Boyden Chamber.
BAEC were fluorescently labeled with calcein AM (Molecular Probes, Inc.) and 0.4×10^3 cells were loaded to the top of a pre-fitted membrane filter that fit a specially designed 96-well microplate. The microplate wells were loaded with serum-free media and VEGF (100 ng/ml) for 18 hr., and cells were allowed to migrate across the membrane. The plate was then analyzed using a fluorescent microplate reader.

[3] = system: bovine aortic endothelial cells (BAEC); assay: Cell-wounding migration assay; format: cell-based; conditions: VEGF 100 ng/ml, serum-free media, 18 hr
Procedure: FIGS. 3A-D show G6PD and endothelial cell migration.
We next examined the role of G6PD on VEGF-stimulated endothelial cell migration. In a cell-wounding migration assay, BAEC were grown to confluence on a P100 culture dish. Using a sterile scalpel, a vertical incision was made in the midline of the dish, and under microscopic guidance, BAEC were removed from one-half of the plate. BAEC were then incubated with VEGF (100 ng/ml) in serum-free media, and cell migration across the midline was observed after 18 hr and quantified by the average cell count in 5 high powered fields.

[4] = system: bovine aortic endothelial cells (BAEC); assay: Cell death by lactate dehydrogenase activity measured in the media; format: cell-based; conditions: DHEA-treated BAEC
Excerpt: as §2

[5] = system: bovine aortic endothelial cells (BAEC); assay: Endothelial cell proliferation by [3H]-thymidine incorporation; format: cell-based
Procedure: FIGS. 1A and 1B show G6PD and endothelial cell proliferation. BAEC were treated with DHEA to decrease G6PD activity and stimulated with VEGF (100 ng/ml) for 8 hr (1A). Cell proliferation is measured by [^3H]-Thymidine incorporation. G6PD expression was inhibited by trans(in)fection with an antisense oligonucleotide to G6PD mRNA (AS) or a scrambled control (SS) and proliferation was determined by [^3H]-Thymidine incorporation (1B). Results are expressed as counts per minute (cpm) and data presented as mean±SEM. *p<0.01 vs.−VEGF.**p<0.01 vs.−DHEA or −SS.
as §2, §3, §4

[6] = system: bovine aortic endothelial cells (BAEC); assay: Cellular NADPH levels in BAEC; format: cell-based; conditions: for cellular NADPH levels: VEGF 100 ng/ml
Excerpt: as §1, §4

[7] = system: C3H wild-type (WT) and hemizygous male (HEMI) mice; assay: In vivo Matrigel plug migration assay; parameters: species or system mouse
Procedure: To examine the effect of G6PD activity on angiogenesis in vivo, we performed an in vivo Matrigel migration assay in C3H wild-type (WT) and hemizygous male (HEMI) mice. Matrigel, derived from mouse basement membrane proteins, was implanted subcutaneously in the groin area to form a Matrigel “plug”. Each mouse was injected on one side with either Matrigel alone, or Matrigel supplemented with VEGF (100 ng/ml). In this manner, each animal could serve as its own control. Plugs were left in place for 14 days. Following this time, the animals were euthanized, plugs excised with surrounding tissue for orientation, and embedded and sectioned in paraffin. Sections were then stained with Hematoxylin & Eosin (H&E). Images were captured digitally and assessed for cell counts. For orientation purposes, a representative Matrigel plug from a WT mouse at 4× (right) and 20× (left) magnification is shown below (FIG. 9).
These findings were quantified by counting cells in 10 randomly selected high-power (20×) fields per image in 3 successive images. […] These findings confirm that G6PD modulates angiogenesis in vivo.
We next wanted to determine if we could “rescue” the G6PD-deficient phenotype using gene transfer to increase local G6PD expression. We treated Matrigel with an adenoviral vector encoding for G6PD implanted plugs in HEMI mice for 7 days in the presence or absence of VEGF (FIG. 13).

[8] = system: bovine aortic endothelial cells (BAEC); assay: Endothelial cell tube formation on Matrigel; format: cell-based; conditions: VEGF 100 ng/ml for 12 hr
Procedure: FIGS. 5A and B show G6PD and Tube Formation. BAEC were transfected with an antisense oligodecocynucleotide to G6PD and mRNA (AS) or a scrambled control (SS) and plated on Matrigel. Cells were then stimulated with VEGF and tube formation was assessed visually (5A) and quantified using area analysis with background substration (5B). Results of area analysis are the average of 10 high-powered fields.
FIGS. 6A and B show G6PD overexpression and tube formation. G6PD expression was increased via adenoviral-mediated gene transfer. BAEC were then placed on Matrigel and stimulated with VEGF ([…]).
To examine the role of G6PD in endothelial cell tube formation in vitro, we plated BAEC on Matrigel and stimulated cells with VEGF (100ng/ml) for 12 hr. Results were quantified using NIH Image to determine area of tube formation. Under basal conditions, BAEC plated on Matrigel formed tubes and networks that were increased following exposure to VEGF.
In order to confirm that G6PD importantly modulates tube formation in vitro, we next increased G6PD expression via adenoviral-mediated gene transfer and examined tube formation.

G6PD [9] = assay: G6PD expression by Western analysis in BAEC; format: cell-based, bovine
Excerpt: as §1, §3, §4

[10] = DHEA-treated or AS transfection for 5 hours

C[C@]12CC[C@H](O)CC1=CC[C@@H]1[C@@H]2CC[C@]2(C)C(=O)CC[C@@H]12 [DHEA, dehydroepiandrosterone]
reduction in G6PD activity (G6PD [1]; [10]): 60% | cell migration (fluorescence), result in words ([2]; VEGF 100 ng/ml, 18 hr): abrogated; also recorded: VEGF did not significantly increase migration | cell migration across the midline, average cell count [3]: 10±2 cells/hpf | cell death by lactate dehydrogenase activity in the media [4]: not the result of increased cell death | [3H]-thymidine incorporation ([5]; basal conditions (DHEA 100 pmol/L for 24 hr; AS or SS transfected)): 9,967±1,531 cpm | [3H]-thymidine incorporation ([5]; following stimulation with VEGF 100 ng/ml for 8 hr): 8,902±1,451 cpm | decrease in the level of cellular NADPH [6, 10]: 30%

COC(=O)[C@@H](N)CCCNC(=N)N[N+](=O)[O-] [L-NAME]
cell migration [2]: 23.6±17 units

CNC(=N)NCCC[C@H](N)C(=O)O [L-NMMA]
cell migration [2]: 21.6±7.3 units

VEGF
G6PD activity (G6PD [1]; 24 hr): 87±19 units/6 min/mg protein | G6PD activity (G6PD [1]; after 4 hr): 182.7±37 units/6 min/mg protein | cell migration as fluorescence ([2]; BAEC with normal G6PD activity, VEGF 100 ng/ml, 18 hr): 55.3±6.6 units | cell migration (fluorescence), result in words ([2]; VEGF 100 ng/ml, 18 hr): significant increase in fluorescence | cell migration into the Matrigel plug ([7]; HEMI mice, 7 days): not increased significantly | cell migration into the Matrigel plug ([7]; HEMI mice, 14 days, Matrigel with VEGF 100 ng/ml): did not significantly improve this response | cell migration into the Matrigel plug ([7]; WT mice, 14 days, Matrigel with VEGF 100 ng/ml): increased the number of cells migrating into the Matrigel plug | cell migration across the midline, average cell count [3]: 28±6 cells/hpf | tube formation / vessel area [8]: increased | G6PD expression (G6PD [9]): did not increase G6PD expression | cellular NADPH levels ([6]; 4 hr): 0.5±0.04 mmoles/mg protein | cellular NADPH levels ([6]; 24 hr): 0.4±0.08 mmoles/mg protein
